Reference: patent US7022720B2, “Synthetic diazonamides as novel anti-mitotic agents” (Board of Regents, The University of Texas System, priority 2001, dated 2006)
Read-outs that look alike come from different tables or passages of the source.

Legend:
OVCAR-3 cells [1] = test: In vitro cytotoxicity assay (Promega CellTiter-Glo) in OVCAR-3; type: cell-based, human
Procedure: A growth inhibition study was also conducted using OVCAR-3 (a human ovarian adenocarcinoma) cells. Human ovarian adenocarcinoma OVCAR-3 cells are treated with diazonamide and control compounds for 48 hours and evaluated for cell viability using the Promega CellTiter-Glo™ Assay (Promega, Madison, Wis.). This assay uses luciferase to measure ATP as indicator of metabolically active cells.

SK-MEL-5 cells = test: MTT assay in SK-MEL-5; type: cell-based, human; settings: SK-MEL-5, MTT, FIG. 13
Text: This assay measures cellular viability and proliferation based on the ability of live cells to take up and cleave a tetrazolium salt to generate a colored product.

[2] = Comparison of synthesized compound with natural diazonamide (handling stability); type: physicochemical
Text: Characteristics of synthesized diazonamide compound, JL-9, were compared to naturally occurring diazonamide. […] The process completes upon attempted preparative HPLC purification of 1b (FIG. 1) under conditions identical to those used to isolate natural (−)-diazonamide A. In addition, a second degradation pathway available in this series appears as a result of the cleavage of the strained macrolactam ring through diketopiperazine formation that involves the C37 amine and the C12 amide carbonyl.

BSC-1 cells = test: Immunofluorescence of alpha tubulin in BSC-1 cells after thymidine block; type: cell-based, African Green Monkey; settings: BSC-1, 100 nM, 12 hours after thymidine block, FIG. 16
Procedure: Immunofluorescence was also performed on JL-9, JL-10, taxol and vinblastine-treated BSC-1 cells subjected to thymidine block. BCS-1 African Green Monkey kidney cells were treated for 18 hours in culture medium containing 2 mM thymidine and then returned to normal medium containing 100 nM of taxol, vinblastine, JL-10 (control) or JL-9 for 12 hours. During the last 30 minutes, Hoecht's dye was added to 100 nM to stain chromosomes. Cells were fixed in cold methanol and stained with antibody specific for alpha tubulin. Images of the organization of microtubules in spindles were collected with a laser scanning confocal microscope using a single 488 nm excitation wavelength.

OVCAR-3 cells [3] = test: Indirect immunofluorescence of tubulin cytoskeleton in OVCAR-3; type: cell-based, human; settings: OVCAR-3, 12 or 23 hours, FIGS. 15D and 15E
Procedure: Immunofluorescence was performed on JL-9, taxol, vinblastine, control-treated OVCAR-3 cells to examine their effects on tubulin cytoskeleton. Cells were grown on 2 cm glass cover slips in tissue culture wells. Media containing JL-9, vinblastine, or taxol was added at various concentrations and incubated for 12 or 23 hours. Hoescht […] nuclear dye was added directly to the media (1.5 ug/ml) and incubated at 37° C. for 30 minutes. Coverslips were washed 3× with 1×PBS and fixed for 10 minutes with −20C 100% methanol. Coverslips were washed 3× with 1×PBS/1% BSA and treated directly with a 1/2000 dilution of anti-α-tubulin antibody (mouse anti-human). Coverslips were washed 3× with 1×PBS/1% BSA and treated with 1/500 dilution of fluorescently conjugated goat anti-mouse secondary antibody (Alexa Fluor 488). Coverslips were washed 3× with 1×PBS/1% BSA and mounted on microscope slides using mounting media (Aqua Poly Mount). Images were obtained using Zeiss Axiovert 100M digital light and confocal microscopy.

HCT-116 cells [4] = type: cell-based, human; settings: 30 nM, 12-48 hours, FIG. 14
Procedure: FACS Analysis was performed on HCT-116 cells to examine the effect of JL-9 on mitosis. 150,000 HCT-116 cells were incubated per well with media into six well tissue culture plates. Cells were allowed to adhere for 16–18 hours. Media containing 0.01% ethanol (vehicle control), 30 nanomolar (nM) taxol, 30 nM vinblastine and 30 nM JL-9 was added to cells and incubated for 12, 24, 36, or 48 hours. At these time points, cells were harvested with 0.25% trypsin 1 mM EDTA, and transferred to 1.5 ml Eppendorf tubes. Cells were pelleted and washed twice with 1×PBS. Cells were then fixed in −20° C. 100% ethanol and stored at 4° C. Cells were pelleted from 100% ethanol, washed once with 1×PBS, and treated with Vindelov's propidium iodide solution (50 ug/ml propidium iodide, 0.01 mM NaCl, 0.1% IPEGAL, 0.01 mg RNase) and 1 mg/ml RNAse for 30 minutes at 37° C. Propidium iodide is a fluorescent marker that binds to nucleotides. It can be used with FACS scan analysis to determine the ploidy of a population of cells. FACS scan analysis was performed using […] FACScan instrument. Data was analyzed using Cell Quest software.

HCT-116 cells [5] = settings: HCT-116 human colorectal carcinoma line; cited from earlier work

| SMILES | GI50 (OVCAR-3 cells [1]; Homo sapiens, OVCAR-3, 48 h) [nM] | cytotoxic and growth inhibitory effect (SK-MEL-5 cells) | mitotic figures / spindle organization (BSC-1 cells) | cell cycle arrest (ploidy) (HCT-116 cells [4]) | also measured |
| --- | --- | --- | --- | --- | --- |
| CC(C)[C@H](O)C(=O)N[C@H]1Cc2ccc3c(c2)C24C5=C(N=C(O5)[C@H](C(C)C)NC1=O)c1nc(Cl)c(o1)-c1c(Cl)[nH]c5cccc(c15)-c1cccc2c1OC4O3 (stereo partly drawn) [JL-9] | 16 | potent cytotoxic and growth inhibitory effect | Mitotic figures were frequently found | arrests HCT-116 cells in the tetraploid (4n) state | fold more potent than JL-10 at inhibiting growth (OVCAR-3 cells [1]; OVCAR-3 in vitro): > 50 fold; potency relative to natural diazonamide A and paclitaxel (OVCAR-3 cells [1]; OVCAR-3 in vitro): equipotent to natural diazonamide A and paclitaxel; stability on handling [2]: susceptible to handling; effect on tubulin cytoskeleton (OVCAR-3 cells [3]): aberrant effects on the cytoskeleton and formation of abnormal mitotic spindles |
| CC(C)[C@H](N)C(=O)N[C@H]1Cc2ccc3c(c2)C24C5=C(N=C(O5)[C@H](C(C)C)NC1=O)c1nc(Cl)c(o1)-c1c(Cl)[nH]c5cccc(c15)-c1cccc2c1OC4O3 (stereo partly drawn) [JL-10] | 845 | inactive analogue | resembled the vehicle controls |  |  |
| CC(C)[C@H](O)C(=O)N[C@H]1Cc2ccc3c(c2)[C@]24C5=C(N=C(O5)[C@H](C(C)C)NC1=O)c1nc(Cl)c(o1)-c1c(Cl)[nH]c5cccc(c15)-c1cccc2c1N[C@@H]4O3 [natural diazonamide, diazonamide A, reference compound] |  |  |  |  | GI50 (OVCAR-3 cells [1]; OVCAR-3, 48 hours, CellTiter-Glo, read-out: GI50): 8 nM; GI50 (50% growth inhibitory concentration) (HCT-116 cells [5]): less than 15 ng/ml |
| CC(=O)O[C@H]1C(=O)[C@@]2(C)[C@H]([C@H](OC(=O)c3ccccc3)[C@]3(O)C[C@H](OC(=O)[C@H](O)[C@@H](NC(=O)c4ccccc4)c4ccccc4)C(C)=C1C3(C)C)[C@]1(OC(C)=O)CO[C@@H]1C[C@@H]2O [paclitaxel, reference compound] |  |  | Mitotic figures were frequently found | arrests HCT-116 cells in the tetraploid (4n) state | GI50 (OVCAR-3 cells [1]; Homo sapiens, OVCAR-3, 48 hours, CellTiter-Glo, read-out: GI50): 8 nM |
| CC[C@]1(O)C[C@@H]2CN(CCc3c([nH]c4ccccc34)[C@@](C(=O)OC)(c3cc4c(cc3OC)N(C)[C@H]3[C@@](O)(C(=O)OC)[C@H](OC(C)=O)[C@]5(CC)C=CCN6CC[C@]43[C@@H]65)C2)C1 [vinblastine, reference compound] |  |  | Mitotic figures were frequently found | arrests HCT-116 cells in the tetraploid (4n) state |  |
